Our source for the melting point values is patent US7939526B2, “Sulfone substituted imidazo ring ethers” (3M Innovative Properties Company, priority 2003, dated 2011).

Regarding `Cc1nc2c(N)nc3c(c2n1CC(C)(C)OCCS(C)(=O)=O)CCCC3` [Example 30, 2-Methyl-1-{2-methyl-2-[2-(methylsulfonyl)ethoxy]propyl}-6,7,8,9-tetrahydro-1H-imidazo[4,5-c]quinolin-4-amine], the melting point is 226 to 229 °C. The figure for `CCCc1nc2c(N)nc3ccccc3c2n1CC(C)(C)OCCS(C)(=O)=O` [Example 22, 1-{2-Methyl-2-[2-(methylsulfonyl)ethoxy]propyl}-2-propyl-1H-imidazo[4,5-c]quinolin-4-amine] is 203 to 206 °C; for `CCCCCCCCCCS(=O)(=O)CCCOCCn1c(CCC)nc2c(N)nc3ccccc3c21` [Example 20, 1-{2-[3-(Decane-1-sulfonyl)propoxy]ethyl}-2-propyl-1H-imidazo[4,5-c]quinolin-4-amine] it is 84 to 86 °C; for `CC(C)(Cn1cnc2c(N)nc3ccccc3c21)OCCS(C)(=O)=O` [Example 29, 1-{2-Methyl-2-[2-(methylsulfonyl)ethoxy]propyl}-1H-imidazo[4,5-c]quinolin-4-amine] it is 261 to 264 °C. Regarding `CCc1nc2c(N)nc3ccccc3c2n1CC(C)(C)OCCS(C)(=O)=O` [Example 36, 2-Ethyl-1-{2-methyl-2-[2-(methylsulfonyl)ethoxy]propyl}-1H-imidazo[4,5-c]quinolin-4-amine], the melting point lay in the range of 206 to 209 °C.

Compound `Cc1nc2c(N)nc3ccccc3c2n1CCOCCS(C)(=O)=O` [Example 1, 2-Methyl-1-{2-[2-(methylsulfonyl)ethoxy]ethyl}-1H-imidazo[4,5-c]quinolin-4-amine] displayed a melting point of 214 to 217 °C. The figure for `CCCc1nc2c(N)nc3ccccc3c2n1CCOCCCS(=O)(=O)c1ccccc1C` [Example 15, 1-(2-{3-[(2-Methylphenyl)sulfonyl]propoxy}ethyl)-2-propyl-1H-imidazo[4,5-c]quinolin-4-amine] is 159 to 160 °C; for `CC(C)(Cn1cnc2c(N)nc3c(c21)CCCC3)OCCS(C)(=O)=O` [Example 31, 1-{2-Methyl-2-[2-(methylsulfonyl)ethoxy]propyl}-6,7,8,9-tetrahydro-1H-imidazo[4,5-c]quinolin-4-amine] it is 219 to 223 °C. As for `CCOCc1nc2c(N)nc3ccccc3c2n1CC1(OCCS(C)(=O)=O)CCCC1` [Example 23, 2-(Ethoxymethyl)-1-({1-[2-(methylsulfonyl)ethoxy]cyclopentyl}methyl)-1H-imidazo[4,5-c]quinolin-4-amine], the melting point fell in the range of 163 to 165 °C.

The compound `CCCc1nc2c(N)nc3ccccc3c2n1CCOCCCS(=O)(=O)C(C)C` [Example 14, 1-(2-{3-[(1-Methylethyl)sulfonyl]propoxy}ethyl)-2-propyl-1H-imidazo[4,5-c]quinolin-4-amine] had a melting point of 176 to 177 °C. In turn, `CCOCc1nc2c(N)nc3ccccc3c2n1CC1(OCCS(C)(=O)=O)CCC1` [Example 26, 2-(Ethoxymethyl)-1-({1-[2-(methylsulfonyl)ethoxy]cyclobutyl}methyl)-1H-imidazo[4,5-c]quinolin-4-amine] registered a melting point of 221 to 223 °C. `CCOCc1nc2c(N)nc3ccccc3c2n1CC1(OCCS(C)(=O)=O)CCCCC1` [Example 24, 2-(Ethoxymethyl)-1-({1-[2-(methylsulfonyl)ethoxy]cyclohexyl}methyl)-1H-imidazo[4,5-c]quinolin-4-amine]: the melting point was 159 to 161 °C.

In turn, `CCOCc1nc2c(N)nc3ccccc3c2n1CC(C)(C)OCCS(C)(=O)=O` [Example 9, 2-Ethoxymethyl-1-{2-[2-(methylsulfonyl)ethoxy]-2-methylpropyl}-1H-imidazo[4,5-c]quinolin-4-amine] yielded a melting point of 183 to 185 °C. With `Cc1nc2c(N)nc3ccccc3c2n1CC(C)(C)OCCS(C)(=O)=O` [Example 21, 2-Methyl-1-{2-methyl-2-[2-(methylsulfonyl)ethoxy]propyl}-1H-imidazo[4,5-c]quinolin-4-amine], the melting point is 253 to 255 °C. `CCOCc1nc2c(N)nc3cccnc3c2n1CC(C)(C)OCCS(C)(=O)=O` [Example 40, 2-Ethoxymethyl-1-{2-[2-(methylsulfonyl)ethoxy]-2-methylpropyl}-1H-imidazo[4,5-c][1,5]naphthyridin-4-amine] yielded a melting point of 189 to 191 °C. The figure for `CCOCc1nc2c(N)nc3ccccc3c2n1CC(C)(C)OCCS(=O)(=O)c1ccccc1` [Example 8, 2-Ethoxymethyl-1-{2-[2-(phenylsulfonyl)ethoxy]-2-methylpropyl}-1H-imidazo[4,5-c]quinolin-4-amine] is 187 to 189 °C; for `CCc1nc2c(N)nc3c(c2n1CC(C)(C)OCCS(C)(=O)=O)CCCC3` [Example 37, 2-Ethyl-1-{2-methyl-2-[2-(methylsulfonyl)ethoxy]propyl}-6,7,8,9-tetrahydro-1H-imidazo[4,5-c]quinolin-4-amine] it is 225 to 227 °C. The figure for `CCCc1nc2c(N)nc3ccccc3c2n1CCOCCS(C)(=O)=O` [Example 4, 1-{2-[2-(Methylsulfonyl)ethoxy]ethyl}-2-propyl-1H-imidazo[4,5-c]quinolin-4-amine] is 150 to 152 °C; for `COCc1nc2c(N)nc3c(c2n1CC(C)(C)OCCS(C)(=O)=O)CCCC3` [Example 39, 2-(Methoxymethyl)-1-{2-methyl-2-[2-(methylsulfonyl)ethoxy]propyl}-6,7,8,9-tetrahydro-1H-imidazo[4,5-c]quinolin-4-amine] it is 195 to 197 °C; for `CCCCc1nc2c(N)nc3ccccc3c2n1CCOCCS(C)(=O)=O` [Example 2, 2-Butyl-1-{2-[2-(methylsulfonyl)ethoxy]ethyl}-1H-imidazo[4,5-c]quinolin-4-amine] it is 168 to 170 °C. The figure for `COCc1nc2c(N)nc3ccccc3c2n1CC(C)(C)OCCS(C)(=O)=O` [Example 38, 2-(Methoxymethyl)-1-{2-methyl-2-[2-(methylsulfonyl)ethoxy]propyl}-1H-imidazo[4,5-c]quinolin-4-amine] is 186 to 189 °C; for `CCOCc1nc2c(N)nc3c(c2n1CC1(OCCS(C)(=O)=O)CCC1)CCCC3` [Example 27, 2-(Ethoxymethyl)-1-({1-[2-(methylsulfonyl)ethoxy]cyclobutyl}methyl)-6,7,8,9-tetrahydro-1H-imidazo[4,5-c]quinolin-4-amine] it is 186 to 188 °C. In turn, `Cc1nc2c(N)nc3c(c2n1CCOCCS(C)(=O)=O)CCCC3` [Example 10, 1-{2-[2-(Methylsulfonyl)ethoxy]ethyl}-2-methyl-6,7,8,9-tetrahydro-1H-imidazo[4,5-c]quinolin-4-amine] had a melting point of 173 to 175 °C. Take `CCCc1nc2c(N)nc3c(c2n1CCOCCS(C)(=O)=O)CCCC3` [Example 11, 1-{2-[2-(Methylsulfonyl)ethoxy]ethyl}-2-propyl-6,7,8,9-tetrahydro-1H-imidazo[4,5-c]quinolin-4-amine]: the melting point is 153 to 155 °C.

Consider `CCCc1nc2c(N)nc3ccccc3c2n1CCOCCCS(=O)(=O)c1ccccc1` [Example 13, 1-{2-[3-(Phenylsulfonyl)propoxy]ethyl}-2-propyl-1H-imidazo[4,5-c]quinolin-4-amine], for which the melting point is 160 to 161 °C.

With `CCCCc1nc2c(N)nc3c(c2n1CC(C)(C)OCCS(C)(=O)=O)CCCC3` [Example 33, 2-Butyl-1-{2-methyl-2-[2-(methylsulfonyl)ethoxy]propyl}-6,7,8,9-tetrahydro-1H-imidazo[4,5-c]quinolin-4-amine], the melting point lay within 146 to 148 °C.

`CCc1nc2c(N)nc3c(c2n1CCOCCS(C)(=O)=O)CCCC3` [Example 12, 2-Ethyl-1-{2-[2-(methylsulfonyl)ethoxy]ethyl}-6,7,8,9-tetrahydro-1H-imidazo[4,5-c]quinolin-4-amine] came in with a melting point of 146 to 148 °C.

Consider `CCOCc1nc2c(N)nc3ccccc3c2n1CCOCCS(C)(=O)=O` [Example 6, 2-(Ethoxymethyl)-1-{2-[2-(methylsulfonyl)ethoxy]ethyl}-1H-imidazo[4,5-c]quinolin-4-amine], for which the melting point was in the range of 158 to 160 °C. Compound `CCCCc1nc2c(N)nc3ccccc3c2n1CC(C)(C)OCCS(C)(=O)=O` [Example 32, 2-Butyl-1-{2-methyl-2-[2-(methylsulfonyl)ethoxy]propyl}-1H-imidazo[4,5-c]quinolin-4-amine] registered a melting point of 196 to 198 °C.

The compound `CCCc1nc2c(N)nc3ccccc3c2n1CCOCCCS(=O)(=O)c1ccccn1` [Example 16, 2-Propyl-1-(2-{3-[(pyridin-2-yl)sulfonyl]propoxy}ethyl)-1H-imidazo[4,5-c]quinolin-4-amine] showed a melting point of 150 to 151 °C. In turn, `CCCc1nc2c(N)nc3ccccc3c2n1CCOCCC[S+](C)[O-]` (stereo not shown) [Example 18] came in with a melting point of 148 to 151 °C. `CCCc1nc2c(N)nc3ccccc3c2n1CCOCCCSC` [Example 17, 1-{2-[3-(Methylthio)propoxy]ethyl}-2-propyl-1H-imidazo[4,5-c]quinolin-4-amine]: the melting point fell in the range of 99 to 101 °C. For the compound `CCOCc1nc2c(N)nc3ccccc3c2n1CC1(OCCS(C)(=O)=O)CC1` [Example 34, 2-(Ethoxymethyl)-1-({1-[2-(methylsulfonyl)ethoxy]cyclopropyl}methyl)-1H-imidazo[4,5-c]quinolin-4-amine], the melting point is 169 to 171 °C. `CCCc1nc2c(N)nc3c(c2n1CC(C)(C)OCCS(C)(=O)=O)CCCC3` [Example 35, 1-{2-Methyl-2-[2-(methylsulfonyl)ethoxy]propyl}-2-propyl-6,7,8,9-tetrahydro-1H-imidazo[4,5-c]quinolin-4-amine] came in with a melting point of 188 to 190 °C. Regarding `CCCCCCc1nc2c(N)nc3ccccc3c2n1CCOCCS(C)(=O)=O` [Example 25, 2-Hexyl-1-{2-[2-(methylsulfonyl)ethoxy]ethyl}-1H-imidazo[4,5-c]quinolin-4-amine], the melting point fell in the range of 158 to 160 °C. `CS(=O)(=O)CCOCCn1cnc2c(N)nc3ccccc3c21` [Example 3, 1-{2-[2-(Methylsulfonyl)ethoxy]ethyl}-1H-imidazo[4,5-c]quinolin-4-amine] registered a melting point of 145 to 148 °C.

Turning to `CCCc1nc2c(N)nc3ccccc3c2n1CCOCCCS(C)(=O)=O` [Example 19, 1-{2-[3-(Methylsulfonyl)propoxy]ethyl}-2-propyl-1H-imidazo[4,5-c]quinolin-4-amine], the melting point lay within 149 to 151 °C.
